Measurements taken from ChEMBL document CHEMBL1201862, “PubChem BioAssay data set” (2004).
Counter-ions that a name gives are not always drawn. Activity calls are given as the source filed them.

What was measured:
Type in all cases: functional
[1] = biological target: T1, Sentrin-specific protease 8 (Homo sapiens, UniProt Q96LD8);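 further: luminescence read-out of SENP8 inhibition, dose-response confirmation following an ultra-high-throughput screen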
T1 sequence (Q96LD8 whole entry): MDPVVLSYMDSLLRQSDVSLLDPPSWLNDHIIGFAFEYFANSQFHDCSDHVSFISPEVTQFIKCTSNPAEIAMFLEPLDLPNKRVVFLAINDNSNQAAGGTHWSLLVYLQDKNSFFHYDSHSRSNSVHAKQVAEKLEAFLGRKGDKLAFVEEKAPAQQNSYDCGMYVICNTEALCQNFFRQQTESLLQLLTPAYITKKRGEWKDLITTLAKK

[2] = biological target: T2, Short transient receptor potential channel 4 (Mus musculus, UniProt Q9QUQ5); assay: calcium entry via TRPC4 opening agents – cell-based, HEK293 TRPC4/mu-opioid, Fluo-4 calcium, dose response (AID 434937)
T2 sequence (Q9QUQ5 whole entry): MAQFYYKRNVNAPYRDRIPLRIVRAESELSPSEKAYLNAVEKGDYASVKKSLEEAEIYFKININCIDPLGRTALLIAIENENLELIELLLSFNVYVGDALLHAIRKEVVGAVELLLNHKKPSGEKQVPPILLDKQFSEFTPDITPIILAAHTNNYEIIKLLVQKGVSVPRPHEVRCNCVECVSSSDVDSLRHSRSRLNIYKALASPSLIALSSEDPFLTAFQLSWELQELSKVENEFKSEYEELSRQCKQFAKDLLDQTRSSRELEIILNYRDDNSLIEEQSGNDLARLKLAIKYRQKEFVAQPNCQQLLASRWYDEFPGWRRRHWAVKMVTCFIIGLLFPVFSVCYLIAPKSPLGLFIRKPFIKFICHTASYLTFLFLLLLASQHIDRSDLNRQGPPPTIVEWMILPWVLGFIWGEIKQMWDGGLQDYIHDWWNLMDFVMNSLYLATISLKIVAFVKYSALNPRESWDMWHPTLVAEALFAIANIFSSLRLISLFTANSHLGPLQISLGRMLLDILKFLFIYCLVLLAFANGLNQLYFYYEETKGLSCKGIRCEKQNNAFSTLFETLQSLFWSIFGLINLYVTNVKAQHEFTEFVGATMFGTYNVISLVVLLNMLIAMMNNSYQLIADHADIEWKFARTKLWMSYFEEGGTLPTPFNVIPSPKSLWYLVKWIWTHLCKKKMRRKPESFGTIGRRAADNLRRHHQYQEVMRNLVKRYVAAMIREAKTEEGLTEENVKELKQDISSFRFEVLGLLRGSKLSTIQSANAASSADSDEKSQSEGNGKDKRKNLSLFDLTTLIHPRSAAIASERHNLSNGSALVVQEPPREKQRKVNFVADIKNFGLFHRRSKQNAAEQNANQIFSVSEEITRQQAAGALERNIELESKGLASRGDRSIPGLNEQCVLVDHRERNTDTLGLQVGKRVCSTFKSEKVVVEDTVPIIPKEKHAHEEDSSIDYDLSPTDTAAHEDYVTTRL

[3] = biological target: T3, Protein RecA (Mycobacterium tuberculosis, UniProt P9WHJ3); assay: Fluorescence Cell-Free Homogeneous Dose Retest to Identify Inhibitors of RecA-Intein Splicing Activity. [Related pubchem assays (depositor defined):AID2097, AID2223, AID489010, AID492950]
T3 sequence (P9WHJ3 whole entry): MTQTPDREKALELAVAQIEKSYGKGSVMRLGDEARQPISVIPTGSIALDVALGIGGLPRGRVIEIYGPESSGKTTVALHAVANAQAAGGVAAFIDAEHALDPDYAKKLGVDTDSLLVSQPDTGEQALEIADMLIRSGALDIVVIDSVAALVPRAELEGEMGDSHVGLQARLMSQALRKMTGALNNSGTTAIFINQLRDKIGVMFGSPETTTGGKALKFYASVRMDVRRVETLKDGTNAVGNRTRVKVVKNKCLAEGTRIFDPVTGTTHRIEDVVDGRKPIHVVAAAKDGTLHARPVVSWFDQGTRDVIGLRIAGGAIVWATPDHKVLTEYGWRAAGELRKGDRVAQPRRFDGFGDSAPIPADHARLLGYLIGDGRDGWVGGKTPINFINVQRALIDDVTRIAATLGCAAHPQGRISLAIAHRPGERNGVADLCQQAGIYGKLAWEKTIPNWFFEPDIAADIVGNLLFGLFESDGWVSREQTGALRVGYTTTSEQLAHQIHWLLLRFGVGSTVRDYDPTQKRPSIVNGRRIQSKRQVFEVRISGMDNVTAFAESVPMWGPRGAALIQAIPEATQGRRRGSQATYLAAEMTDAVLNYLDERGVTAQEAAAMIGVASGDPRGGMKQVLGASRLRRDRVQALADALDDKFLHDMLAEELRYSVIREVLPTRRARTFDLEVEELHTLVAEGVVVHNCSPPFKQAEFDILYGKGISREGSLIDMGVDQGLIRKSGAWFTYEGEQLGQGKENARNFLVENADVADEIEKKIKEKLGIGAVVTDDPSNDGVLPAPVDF

[4] = biological target: T4, Replicative DNA helicase DnaB (Mycobacterium tuberculosis, UniProt P9WMR3); assay: DnaB intein splicing inhibitors, dose response, biochemical, cell-free fluorescence (AID 449749)
T4 sequence (P9WMR3 whole entry): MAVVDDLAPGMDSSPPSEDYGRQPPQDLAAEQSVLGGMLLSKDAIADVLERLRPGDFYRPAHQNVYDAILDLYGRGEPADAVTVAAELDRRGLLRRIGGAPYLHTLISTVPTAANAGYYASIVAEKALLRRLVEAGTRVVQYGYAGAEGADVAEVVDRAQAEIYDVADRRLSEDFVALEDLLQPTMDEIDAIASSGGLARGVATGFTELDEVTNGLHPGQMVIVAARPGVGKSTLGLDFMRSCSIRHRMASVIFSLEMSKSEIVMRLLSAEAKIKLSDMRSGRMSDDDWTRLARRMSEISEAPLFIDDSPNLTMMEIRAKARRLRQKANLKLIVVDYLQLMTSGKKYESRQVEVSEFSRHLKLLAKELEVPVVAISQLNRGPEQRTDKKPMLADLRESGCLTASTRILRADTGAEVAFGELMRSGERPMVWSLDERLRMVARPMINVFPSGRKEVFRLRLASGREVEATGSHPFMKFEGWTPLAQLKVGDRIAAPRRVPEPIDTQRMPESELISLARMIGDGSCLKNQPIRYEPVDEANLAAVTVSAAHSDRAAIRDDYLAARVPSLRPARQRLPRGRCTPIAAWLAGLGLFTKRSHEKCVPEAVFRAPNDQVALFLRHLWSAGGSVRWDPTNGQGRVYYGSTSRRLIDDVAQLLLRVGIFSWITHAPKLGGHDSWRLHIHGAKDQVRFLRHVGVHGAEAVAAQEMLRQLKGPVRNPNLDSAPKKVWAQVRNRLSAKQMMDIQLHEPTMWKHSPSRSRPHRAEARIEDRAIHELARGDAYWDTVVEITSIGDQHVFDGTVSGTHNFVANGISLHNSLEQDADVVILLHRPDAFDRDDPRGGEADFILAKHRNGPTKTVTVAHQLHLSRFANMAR

Row | Compound | IC50 [1] | EC50 [2] | EC50 [3] | AC50 [4]
1 | CCC(C)n1c(NC(=O)c2ccccc2)c(C#N)c2nc3ccccc3nc21 (stereo not given) | 2.24 µM (active) |  |  | 
2 | CCN1/C(=C\c2ccc3ccccc3[n+]2CC)Sc2cc(C)ccc21 |  | 4.73 µM (active) |  | 
3 | CCCCCCCCCCOC(=O)C[n+]1c(COc2ccc(C)cc2)n(C)c2ccccc21 |  |  | 11.7 µM (active) | 3.82 µM (active)
4 | O=C(CCl)Oc1ccc2occ(C(=O)c3cccs3)c2c1 | 38.2 µM (active) |  | 19.3 µM (active) | 16.8 µM (active)
5 | CC[C@@H](CO)NC(=O)[C@@H]1C=C2c3cccc4c3c(cn4C)C[C@H]2N(C)C1 [METHYSERGIDE MALEATE] |  | 1.5 µM (active) | 237 µM (active) | > 380 µM (inactive)
